Experimental data reported in paper PMC2880318 (Immunome Research, 2010).
Where a SMILES comes first, the peptide text is derived from it.

target: purified HLA-DRB1*0101 (Homo sapiens, UniProt P01903+P01911, A100R/D57E/F55L/F60I/F76Y/I96L/L162R/M171V/P40L/Q125E/R42F/V115G/Y59C); test: biochemical; type: binding

| Structure (SMILES) | IC50 [nM] |
| --- | --- |
| CC(C)C[C@H](NC(=O)[C@H](CCC(=O)O)NC(=O)[C@H](CCCNC(=N)N)NC(=O)[C@H](CCCNC(=N)N)NC(=O)[C@H](CC(C)C)NC(=O)[C@H](C)NC(=O)[C@H](CCC(N)=O)NC(=O)[C@@H](NC(=O)[C@H](Cc1c[nH]c2ccccc12)NC(=O)[C@H](CCC(N)=O)NC(=O)[C@H](Cc1ccccc1)NC(=O)[C@H](CO)NC(=O)[C@H](CCCCN)NC(=O)[C@@H](NC(=O)[C@@H](N)CCC(=O)O)C(C)C)[C@@H](C)O)C(=O)O [LCMV NP6-20] | 49 |
| CC[C@H](C)[C@H](NC(=O)[C@H](CS)NC(=O)[C@H](CC(=O)O)NC(=O)[C@@H](N)CCSC)C(=O)N[C@H](C(=O)N[C@@H](Cc1ccccc1)C(=O)N[C@@H](CCC(=O)O)C(=O)N[C@@H](CO)C(=O)N[C@@H](C)C(=O)N[C@@H](CO)C(=O)N[C@@H](CCCCN)C(=O)N[C@@H](C)C(=O)N[C@@H](CCCNC(=N)N)C(=O)N[C@@H](CC(C)C)C(=O)N1CCC[C@H]1C(=O)O)[C@@H](C)CC [LCMV NP521-535] | 4.4 |
| CC[C@H](C)[C@H](NC(=O)[C@H](CC(C)C)NC(=O)[C@H](Cc1ccccc1)NC(=O)[C@@H](NC(=O)[C@H](CC(N)=O)NC(=O)[C@@H](NC(=O)CNC(=O)CNC(=O)[C@H](CCCCN)NC(=O)[C@H](CCSC)NC(=O)[C@H](Cc1ccc(O)cc1)NC(=O)[C@H](Cc1ccc(O)cc1)NC(=O)[C@H](Cc1ccccc1)NC(=O)[C@H](CO)NC(=O)[C@@H](N)CC(N)=O)C(C)C)[C@@H](C)O)C(=O)O [MACV GPC96-110] | 0.21 |
| CC(C)C[C@H](NC(=O)[C@H](CO)NC(=O)[C@H](CCCNC(=N)N)NC(=O)[C@H](CCC(=O)O)NC(=O)[C@H](Cc1ccccc1)NC(=O)[C@H](CC(N)=O)NC(=O)[C@H](CC(C)C)NC(=O)[C@H](Cc1c[nH]cn1)NC(=O)[C@@H](NC(=O)[C@H](CCCCN)NC(=O)[C@@H](N)CO)[C@@H](C)O)C(=O)N[C@@H](CCCCN)C(=O)N[C@@H](C)C(=O)N[C@@H](Cc1ccccc1)C(=O)N[C@@H](Cc1ccccc1)C(=O)O [MACV GPC251-265] | 1.7 |
| CC[C@H](C)[C@H](NC(=O)CNC(=O)[C@@H](NC(=O)[C@H](CC(C)C)NC(=O)[C@H](Cc1c[nH]cn1)NC(=O)[C@H](CC(C)C)NC(=O)[C@H](Cc1ccccc1)NC(=O)[C@H](CC(C)C)NC(=O)[C@H](CO)NC(=O)[C@H](C)N)C(C)C)C(=O)N1CCC[C@H]1C(=O)N[C@H](C(=O)N[C@@H](Cc1c[nH]cn1)C(=O)N[C@@H](CCCNC(=N)N)C(=O)N[C@@H](Cc1c[nH]cn1)C(=O)O)[C@@H](C)O [MACV GPC446-460] | 0.13 |
| CC[C@H](C)[C@H](NC(=O)[C@H](CC(C)C)NC(=O)[C@H](CCCCN)NC(=O)[C@@H](NC(=O)[C@H](C)NC(=O)[C@H](CCC(=O)O)NC(=O)[C@H](CC(C)C)NC(=O)[C@@H](NC(=O)[C@H](CC(=O)O)NC(=O)[C@H](CC(C)C)NC(=O)[C@@H](NC(=O)[C@H](CCCNC(=N)N)NC(=O)[C@@H](N)CC(=O)O)C(C)C)[C@@H](C)CC)C(C)C)C(=O)N[C@@H](CCCNC(=N)N)C(=O)N[C@@H](CCCCN)C(=O)O [MACV L391-405] (H-DRVLDILEAVKLIRK-OH) | 0.48 |
| CC[C@H](C)[C@H](NC(=O)[C@H](Cc1c[nH]cn1)NC(=O)[C@H](Cc1c[nH]cn1)NC(=O)[C@@H](NC(=O)[C@H](CCC(N)=O)NC(=O)[C@H](CC(N)=O)NC(=O)[C@H](C)NC(=O)[C@H](Cc1ccccc1)NC(=O)[C@H](C)NC(=O)[C@H](CCSC)NC(=O)[C@H](CC(C)C)NC(=O)[C@H](Cc1ccccc1)NC(=O)[C@H](Cc1ccc(O)cc1)NC(=O)[C@@H](N)CCCNC(=N)N)[C@@H](C)CC)C(=O)N[C@@H](CC(=O)O)C(=O)O [MACV L636-650] | 0.24 |
| CC[C@H](C)[C@H](NC(=O)[C@H](CC(C)C)NC(=O)[C@H](Cc1ccc(O)cc1)NC(=O)[C@@H](N)CC(=O)O)C(=O)N[C@@H](CC(C)C)C(=O)N[C@@H](CCCCN)C(=O)N[C@@H](CC(N)=O)C(=O)N[C@@H](CC(C)C)C(=O)N[C@H](C(=O)NCC(=O)N[C@@H](CC(C)C)C(=O)N[C@H](C(=O)N[C@@H](CO)C(=O)N[C@@H](C)C(=O)NCC(=O)O)C(C)C)[C@@H](C)O [MACV L866-880] | 0.21 |
